In US20260364215A1, “Radiopharmaceutical Compositions Targeting Ephrin Type-A Receptor 2 and Uses Thereof” (PeptiDream Inc., priority 2022, published 2026):
pKd: −log10 of the molar value. Numbered stars: 1 amine (or outer) side, 2 acyl side, 3 side chain; on linkers, the order of the positions; unused ones are H or OH. Bridge positions count the residues as written; N and C are the ends. Square brackets hold non-standard residues; d marks the D form. Side chains are listed from the residue outwards. Peptide text beside a SMILES is read from it. * marks the point of attachment. DOTA(Lu) = O=C1CN2CCN3CCN(CC(=O)*)CCN(CC2)CC(=O)[O][Lu]([O]1)[O]C(=O)C3; NH(1-deoxy-D-glucityl) = OC[C@@H](O)[C@@H](O)[C@H](O)[C@@H](O)CN*; DOTA = O=C(O)CN1CCN(CC(=O)O)CCN(CC(=O)*)CCN(CC(=O)O)CC1; Trp(1-Me,7-Cl) = Cn1cc(C[C@H](N)C(=O)O)c2cccc(Cl)c21; dPhe(3-CONH2) = NC(=O)c1cccc(C[C@@H](N)C(=O)O)c1; NMePhe(3-CN) = CN[C@@H](Cc1cccc(C#N)c1)C(=O)O; Piperazinyl(4-CH2COOH) = O=C(O)CN1CCN(*)CC1; Trp(1-Me) = Cn1cc(C[C@H](N)C(=O)O)c2ccccc21; PEG8 = NCCOCCOCCOCCOCCOCCOCCOCCOCCC(=O)O; NMemTyr = CN[C@@H](Cc1cccc(O)c1)C(=O)O; NMe3Pal = CN[C@@H](Cc1cccnc1)C(=O)O; NMeF = CN[C@@H](Cc1ccccc1)C(=O)O; hCit = NC(=O)NCCCC[C@H](N)C(=O)O; Gly(cBu) = N[C@H](C(=O)O)C1CCC1; NMeE = CN[C@@H](CCC(=O)O)C(=O)O; Aad = N[C@@H](CCCC(=O)O)C(=O)O; NMeN = CN[C@@H](CC(N)=O)C(=O)O; PEG2 = NCCOCCOCCC(=O)O; CO = O=C([*:1])[*:2]; βAla = NCCC(=O)O

biological target: T1, Recombinant Human EphA2 Fc Protein (Homo sapiens, UniProt P29317); assay: Interaction analysis (kinetics, KD) of peptides and conjugates against EphA2 by SPR, Biacore T200, single-cycle kinetics (Examples B15 and B22); format: binding; conditions: not given
T1 construct: purchased Elabscience
Experimental: Example B15. Interaction Analysis by SPR was Performed Using Biacore (Cytiva)
SPR assay was performed using Biacore T200 (Cytiva).
The HBS-P+ buffer (10 mM HEPES (pH7.4), 150 mM NaCl, 0.05% (v/v) Surfactant P20) containing 1% DMSO was used as running buffer. Recombinant Human EphA2 Fc Protein (Fc tag, Elabscience) was captured by Human Antibody Capture kit (Cytiva). Peptide samples in DMSO were diluted with running buffer, and prepared five serial dilutions. Using these serial dilutions, kinetics of peptides against EphA2 was measured at a flow rate of […] at 25 °C. The method adopted for sample measurement was a single-cycle kinetics method. The analysis was conducted using the evaluation software 3.0 provided with Biacore T200. Kinetics fitting was done on the difference data obtained by subtracting the baseline data from sample measurement data. KD values were calculated based on the association rate constant (ka) and dissociation rate constant (kd).
Example B22: Interaction Analysis of Conjugates by SPR was Performed Using Biacore (Cytiva)
SPR assay was performed using Biacore T200 (Cytiva) according to Example B15.

T1 sequence (P29317 24-534 limits assumed): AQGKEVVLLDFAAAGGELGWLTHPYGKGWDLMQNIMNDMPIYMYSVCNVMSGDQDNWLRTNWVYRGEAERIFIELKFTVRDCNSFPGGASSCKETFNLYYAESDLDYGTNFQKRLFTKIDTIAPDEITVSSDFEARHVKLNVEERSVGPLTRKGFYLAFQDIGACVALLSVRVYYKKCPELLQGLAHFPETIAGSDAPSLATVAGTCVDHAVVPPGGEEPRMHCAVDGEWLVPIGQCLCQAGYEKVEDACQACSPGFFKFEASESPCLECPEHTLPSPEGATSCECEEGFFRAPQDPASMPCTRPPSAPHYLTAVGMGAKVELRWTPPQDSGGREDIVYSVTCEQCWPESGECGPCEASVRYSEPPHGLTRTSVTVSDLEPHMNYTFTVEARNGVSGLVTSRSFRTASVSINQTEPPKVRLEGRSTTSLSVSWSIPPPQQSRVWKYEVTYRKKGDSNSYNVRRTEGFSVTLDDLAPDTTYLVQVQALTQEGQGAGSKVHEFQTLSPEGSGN

Structure (SMILES)	pKd
C[C@@H](O)[C@@H]1NC(=O)[C@H](Cc2cn(C)c3ccccc23)NC(=O)[C@H](CCCCNC(=O)N2CCN(CC(=O)O)CC2)NC(=O)[C@H](Cc2cn(C)c3c(Cl)cccc23)NC(=O)[C@H](CCC(=O)O)N(C)C(=O)[C@H](CCCC(N)=O)NC(=O)[C@H](C2CCC2)NC(=O)[C@H](CC(N)=O)NC(=O)[C@H](Cc2cccc(C#N)c2)N(C)C(=O)[C@@H](Cc2cccc(C(N)=O)c2)NC(=O)CSC[C@@H](C(=O)N[C@H](CCCCNC(=O)CN2CCN3CCN4CCN(CC2)CC(=O)[O][Lu]([O]C(=O)C3)[O]C(=O)C4)C(N)=O)NC(=O)[C@H](CCCC(N)=O)NC1=O [PDC_EphA2-00022612-C302] ({CH2CO}-[dPhe(3-CONH2)][NMePhe(3-CN)]N[Gly(cBu)][Aad](NH2)[NMeE][Trp(1-Me,7-Cl)]K([CO-Piperazinyl(4-CH2COOH)])[Trp(1-Me)]T[Aad](NH2)C[dK](DOTA(Lu))-NH2; thioether N-12)	> 9.00
CC(C)C[C@@H]1NC(=O)[C@H](CC(N)=O)NC(=O)[C@H](Cc2cccnc2)N(C)C(=O)[C@@H](Cc2cccc(C(N)=O)c2)NC(=O)CSC[C@@H](C(N)=O)NC(=O)[C@H](CCCC(N)=O)NC(=O)[C@H]([C@@H](C)O)NC(=O)[C@H](Cc2cn(C)c3ccccc23)NC(=O)[C@H](CCCCNC(=O)CN2CCN3CCN4CCN(CC2)CC(=O)[O][Lu]([O]C(=O)C3)[O]C(=O)C4)NC(=O)[C@H](Cc2cn(C)c3c(Cl)cccc23)NC(=O)[C@H](CC(N)=O)N(C)C(=O)[C@H](CCCC(N)=O)NC1=O [PDC_EphA2-00026715] ({CH2CO}-[dPhe(3-CONH2)][NMe3Pal]NL[Aad](NH2)[NMeN][Trp(1-Me,7-Cl)]K(DOTA(Lu))[Trp(1-Me)]T[Aad](NH2)C-NH2; thioether N-12)	> 9.00
C[C@@H](O)[C@@H]1NC(=O)[C@H](Cc2cn(C)c3ccccc23)NC(=O)[C@H](CCC(=O)NC[C@H](O)[C@@H](O)[C@H](O)[C@H](O)CO)NC(=O)[C@H](Cc2cn(C)c3c(Cl)cccc23)NC(=O)[C@H](CC(N)=O)N(C)C(=O)[C@H](CCCC(N)=O)NC(=O)[C@H](C2CCC2)NC(=O)[C@H](CC(N)=O)NC(=O)[C@H](Cc2cccc(C#N)c2)N(C)C(=O)[C@@H](Cc2cccc(C(N)=O)c2)NC(=O)CSC[C@@H](C(=O)N[C@H](CCCCNC(=O)CN2CCN3CCN4CCN(CC2)CC(=O)[O][Lu]([O]C(=O)C3)[O]C(=O)C4)C(N)=O)NC(=O)[C@H](CCCC(N)=O)NC1=O [PDC_EphA2-00022615-C302] ({CH2CO}-[dPhe(3-CONH2)][NMePhe(3-CN)]N[Gly(cBu)][Aad](NH2)[NMeN][Trp(1-Me,7-Cl)]E(NH(1-deoxy-D-glucityl))[Trp(1-Me)]T[Aad](NH2)C[dK](DOTA(Lu))-NH2; thioether N-12)	> 9.00
CC(C)C[C@@H]1NC(=O)[C@H](CC(N)=O)NC(=O)[C@H](Cc2cccnc2)N(C)C(=O)[C@@H](C)NC(=O)CSC[C@@H](C(N)=O)NC(=O)[C@H](CCCC(N)=O)NC(=O)[C@H]([C@@H](C)O)NC(=O)[C@H](Cc2cn(C)c3ccccc23)NC(=O)[C@H](CCCCNC(=O)N2CCN(CC(=O)O)CC2)NC(=O)[C@H](Cc2cn(C)c3c(Cl)cccc23)NC(=O)[C@H](CCC(=O)O)N(C)C(=O)[C@H](CCCCNC(=O)CN2CCN3CCN4CCN(CC2)CC(=O)[O][Lu]([O]C(=O)C3)[O]C(=O)C4)NC1=O [PDC_EphA2-00026631] ({CH2CO}-[dA][NMe3Pal]NLK(DOTA(Lu))[NMeE][Trp(1-Me,7-Cl)]K([CO-Piperazinyl(4-CH2COOH)])[Trp(1-Me)]T[Aad](NH2)C-NH2; thioether N-12)	> 9.00
CN1C(=O)[C@H](CO)NC(=O)[C@H](C2CCC2)NC(=O)[C@H](CC(N)=O)NC(=O)[C@H](Cc2cccnc2)N(C)C(=O)[C@@H](Cc2cccc(C(N)=O)c2)NC(=O)CSC[C@@H](C(=O)N[C@@H](CCCCNC(=O)CN2CCN3CCN4CCN(CC2)CC(=O)[O][Lu]([O]C(=O)C3)[O]C(=O)C4)C(N)=O)NC(=O)[C@H](Cc2cn(C)c3ccccc23)NC(=O)[C@H](CCCCNC(N)=O)NC(=O)[C@H](Cc2cn(C)c3c(Cl)cccc23)NC(=O)[C@@H]1Cc1cccnc1 [PDC_EphA2-00026602-C301] ({CH2CO}-[dPhe(3-CONH2)][NMe3Pal]N[Gly(cBu)]S[NMe3Pal][Trp(1-Me,7-Cl)][hCit][Trp(1-Me)]CK(DOTA(Lu))-NH2; thioether N-10)	> 9.00
C[C@@H](O)[C@@H]1NC(=O)[C@H](Cc2cn(C)c3ccccc23)NC(=O)[C@H](CCCCNC(=O)N2CCN(CC(=O)O)CC2)NC(=O)[C@H](Cc2cn(C)c3c(Cl)cccc23)NC(=O)[C@H](CCC(=O)O)N(C)C(=O)[C@H](CCCC(N)=O)NC(=O)[C@H](C2CCC2)NC(=O)[C@H](CC(N)=O)NC(=O)[C@H](Cc2cccc(O)c2)N(C)C(=O)[C@@H](Cc2cccc(C(N)=O)c2)NC(=O)CSC[C@@H](C(=O)N[C@H](CCCCNC(=O)CN2CCN3CCN4CCN(CC2)CC(=O)[O][Lu]([O]C(=O)C3)[O]C(=O)C4)C(N)=O)NC(=O)[C@H](CCCC(N)=O)NC1=O [PDC_EphA2-00022613-C302] ({CH2CO}-[dPhe(3-CONH2)][NMemTyr]N[Gly(cBu)][Aad](NH2)[NMeE][Trp(1-Me,7-Cl)]K([CO-Piperazinyl(4-CH2COOH)])[Trp(1-Me)]T[Aad](NH2)C[dK](DOTA(Lu))-NH2; thioether N-12)	> 9.00
CC(C)C[C@@H]1NC(=O)[C@H](CC(N)=O)NC(=O)[C@H](Cc2cccnc2)N(C)C(=O)[C@@H](C)NC(=O)CSC[C@@H](C(N)=O)NC(=O)[C@H](CCCCNC(=O)CN2CCN3CCN4CCN(CC2)CC(=O)[O][Lu]([O]C(=O)C3)[O]C(=O)C4)NC(=O)[C@H]([C@@H](C)O)NC(=O)[C@H](Cc2cn(C)c3ccccc23)NC(=O)[C@H](CCCCNC(=O)N2CCN(CC(=O)O)CC2)NC(=O)[C@H](Cc2cn(C)c3c(Cl)cccc23)NC(=O)[C@H](CCC(=O)O)N(C)C(=O)[C@H](CCCC(N)=O)NC1=O [PDC_EphA2-00026633] ({CH2CO}-[dA][NMe3Pal]NL[Aad](NH2)[NMeE][Trp(1-Me,7-Cl)]K([CO-Piperazinyl(4-CH2COOH)])[Trp(1-Me)]TK(DOTA(Lu))C-NH2; thioether N-12)	> 9.00
C[C@H]1NC(=O)CSC[C@@H](C(=O)N[C@H](CCC(=O)O)C(N)=O)NC(=O)[C@H](CCCC(N)=O)NC(=O)[C@H]([C@@H](C)O)NC(=O)[C@H](Cc2cn(C)c3ccccc23)NC(=O)[C@H](CCCCNC(=O)N2CCN(CC(=O)O)CC2)NC(=O)[C@H](Cc2cn(C)c3c(Cl)cccc23)NC(=O)[C@H](CCC(=O)O)N(C)C(=O)[C@H](CCCCNC(=O)[C@@H](Cc2ccccc2)NC(=O)CN2CCN3CCN4CCN(CC2)CC(=O)[O][Lu]([O]C(=O)C3)[O]C(=O)C4)NC(=O)[C@H](C2CCC2)NC(=O)[C@H](CC(N)=O)NC(=O)[C@H](Cc2cccnc2)N(C)C1=O [PDC_EphA2-00027127] ({CH2CO}-[dA][NMe3Pal]N[Gly(cBu)]K([dF-DOTA(Lu)])[NMeE][Trp(1-Me,7-Cl)]K([CO-Piperazinyl(4-CH2COOH)])[Trp(1-Me)]T[Aad](NH2)C[dE]-NH2; thioether N-12)	> 9.00

same assay, conditions: conjugates, Biacore T200 according to Example B15, Table B16; read-out: SPR Kd

Structure (SMILES)	pKd
CC(C)C[C@@H]1NC(=O)[C@H](CC(N)=O)NC(=O)[C@H](Cc2ccccc2)N(C)C(=O)[C@@H](C)NC(=O)CSC[C@@H](C(=O)NCCC(=O)N[C@H](CCCCNC(=O)CCOCCOCCNC(=O)CCOCCOCCOCCOCCOCCOCCOCCOCCNC(=O)CN2CCN(CC(=O)O)CCN(CC(=O)O)CCN(CC(=O)O)CC2)C(N)=O)NC(=O)[C@H](CCC(=O)O)NC(=O)[C@H]([C@@H](C)O)NC(=O)[C@H](Cc2cn(C)c3ccccc23)NC(=O)[C@H](C(C)C)NC(=O)[C@H](Cc2cn(C)c3ccccc23)NC(=O)[C@H](Cc2ccccc2)N(C)C(=O)[C@H](CCCC(=O)O)NC1=O.[Lu+3] [PDC_EphA2-00001417-C304] ({CH2CO}-[dA][NMeF]NL[Aad][NMeF][Trp(1-Me)]V[Trp(1-Me)]TEC[βAla][dK]([PEG2-PEG8-DOTA])-NH2; thioether N-12)	8.00 to 9.00

same assay, conditions: peptides, Biacore T200, 25 °C, Table B12; read-out: SPR Kd

pKd	Structure (SMILES)
> 9.00	CC(=O)NCCCC[C@@H](NC(=O)CCNC(=O)[C@@H]1CSCC(=O)N[C@H](C)C(=O)N(C)[C@@H](Cc2cccnc2)C(=O)N[C@@H](CC(N)=O)C(=O)N[C@@H](CC(C)C)C(=O)N[C@@H](CCCC(=O)O)C(=O)N(C)[C@@H](Cc2ccccc2)C(=O)N[C@@H](Cc2cn(C)c3ccccc23)C(=O)N[C@@H](C(C)C)C(=O)N[C@@H](Cc2cn(C)c3ccccc23)C(=O)N[C@@H]([C@@H](C)O)C(=O)N[C@@H](CCC(=O)O)C(=O)N1)C(N)=O [PDC_EphA2-00008083] ({CH2CO}-[dA][NMe3Pal]NL[Aad][NMeF][Trp(1-Me)]V[Trp(1-Me)]TEC[βAla][dK](Ac)-NH2; thioether N-12)
> 9.00	C[C@@H](O)[C@@H]1NC(=O)[C@H](Cc2cn(C)c3ccccc23)NC(=O)[C@H](CCC(=O)NC[C@H](O)[C@@H](O)[C@H](O)[C@H](O)CO)NC(=O)[C@H](Cc2cn(C)c3c(Cl)cccc23)NC(=O)[C@H](Cc2cccnc2)N(C)C(=O)[C@H](CCCC(N)=O)NC(=O)[C@H](C2CCC2)NC(=O)[C@H](CC(N)=O)NC(=O)[C@H](Cc2cccnc2)N(C)C(=O)[C@@H](Cc2cccc(C(N)=O)c2)NC(=O)CSC[C@@H](C(N)=O)NC(=O)[C@H](CCCC(N)=O)NC1=O [PDC_EphA2-00019437] ({CH2CO}-[dPhe(3-CONH2)][NMe3Pal]N[Gly(cBu)][Aad](NH2)[NMe3Pal][Trp(1-Me,7-Cl)]E(NH(1-deoxy-D-glucityl))[Trp(1-Me)]T[Aad](NH2)C-NH2; thioether N-12)
